Data set [1] in a line: Intramuscular study in minipig for prodrugs, epinephrine pharmacokinetic profile. In kind it is in vivo, male Yucatan miniature swine. To be noted: epinephrine in plasma, IM 2 mg/animal. How it is done:
Yucatan minipigs (n=4 males per group) were weighed and weights were recorded. The morning of the study, the vascular access port (VAP) of each animal was checked for proper functioning. Minipigs with viable VAP were removed from the home cage and placed in a holding sling. The animals were fasted overnight prior to dose administration and for the duration of PK blood collections.
All the formulations were prepared fresh on the day of dosing and maintained on wet ice until dosing. The dose was injected in the rear hind limb. Prior to administering, the plunger of the syringe was aspirated and observed for any blood that may flow into the syringe. If no blood was observed, it was verified that the needle was in proper placement, and the test articles were administered.
At each specified time-point, 6 mL of whole blood was collected into blood collection tubes containing K2EDTA as the anticoagulant and sodium metabisulfite as stabilizer. Sodium metabisulfite was at a concentration of 8.9 mM, pH 3 (60 μL/6 mL of whole blood of the 890 mM stock solution). SigmaFast (600 μL of SigmaFast 1× solution to 6 mL of whole blood) was added immediately to the tubes as the enzyme arresting agent. The tubes were inverted several times for mixing upon addition of SigmaFast solution. […] The resulting plasma was obtained and stored at approximately […]. The analysis of epinephrine was done using LC-MS/MS method.
Applicants sought to identify epinephrine prodrugs with higher permeability and slower hydrolysis after intramuscular (IM) administrations. […] Yucatan minipigs were weighed and in the morning of the study, the vascular access port (VAP) of each animal was checked for proper functioning. Minipigs with viable VAP were removed from the home cage and placed in a holding sling. The animals were fasted overnight prior to dose administration and for the duration of PK blood collections.
The dose was injected in the rear hind limb. […] At each specified time-point, 6 mL of whole blood was collected into blood collection tubes containing anticoagulant and stabilizer. Protease inhibitor cocktail was added and the tubes were inverted several times for mixing. All blood samples were centrifuged and the resulting plasma was analyzed for epinephrine using LC-MS/MS method.

Data set [2] in a line: In vitro human whole blood hydrolysis assay. To be noted: for hydrolysis in human whole blood compared to L-Dipivefrin: 1 μM, 37° C., up to 6 hours, epinephrine in plasma by LC-MS/MS.
Method: Fresh healthy human whole blood was collected in blood collection tubes and preincubated for 30 min at 37° C.
Using human whole blood in vitro, epinephrine levels in plasma was measured. Whole blood was collected from 2 donors. Compounds were incubated at 1 μM conc with Stabilizer. Plasma was separated after stopping the enzyme reaction at different timepoints. Samples were extracted and analyzed by LC-MS method.
The nature of data set [3]: Ex vivo permeation study, Franz diffusion cell. Format: in vitro ADME, porcine. To be noted: for permeation: ex vivo, compared to L-Dipivefrin. How it is done: The Franz diffusion cell apparatus consists of two chambers separated by a membrane. The permeation studies were conducted using porcine buccal mucosa obtained from a slaughterhouse. The tissues were dermatomed to typically […] and mounted in vertical Franz diffusion cells maintained at 37° C. The tissue membrane separates the donor compartment containing the drug mixed with the permeation enhancer solution and the receptor compartment containing the collection media whish was selected to provide sink conditions throughout the experiment. The permeation rate was observed over several hours by analysing drug concentration in the receptor medium.
In one example, a permeation procedure is conducted as follows. A temperature bath is set to 37° C., and receiver media is placed in a water bath to adjust the temperature and begin degassing. A Franz diffusion cell is obtained and prepared. The Franz diffusion cell includes a donor compound, a donor chamber, a membrane, sampling port, receptor chamber, stir bar, and a heater/circulator. A stir bar is inserted into a Franz diffusion cell. Tissue is placed over the Franz diffusion cell, and it is ensured that the tissue covers the entire area with an overlap onto a glass joint. The top of a diffusion cell is placed over the tissue, and the top of the cell is clamped to the bottom. About 5 mL of receptor media is loaded into the receiver area to ensure that no air bubbles are trapped in the received portion of the cell. This ensures that all 5 mL can fit into the receiver area. Stirring is begun, and temperature is allowed to equilibrate for about 20 minutes. Meanwhile, High Performance Liquid Chromatography (HPLC) vials are labelled by cell number and time point. One must then check again for air bubbles as the solution will degas during heating.
If testing films, one can perform the following next steps: (1) weigh films, punch to match diffusion area (or smaller), reweigh, record pre- and post-punching weight; (2) wet a donor area with approximately 100 μL of phosphate buffer; (3) place film on a donor surface, top with 400 μL of phosphate buffer, and start timers.
For solution studies, one can perform the following steps: (1) using a micropipette, dispense 500 μL of the solution into each donor cell, start the timers; (2) sample 200 μL at the following time points (time=0 min, 20 min, 40 min, 60 min, 120 min, 180 min, 240 min, 300 min, 360 min), and place in labelled HPLC vials, ensure no air is trapped in the bottom of the vial by tapping the closed vials; (3) replace each sample time with 200 uL of receptor media (to maintain 5 mL); (4) When all time points completed, disassemble the cells and dispose of all materials properly.
1. Tissue is freshly excised and shipped (e.g. overnight) at 4° C. 2. The tissue is processed and frozen at −20° C. for up to three weeks prior to use. 3. The tissue is dermatomed to precise thickness. 4. Approximately 5 mL of receiving media is added to the receiving compartment. The media is selected to ensure sink conditions. 5. The tissue is placed in a Franz diffusion cell, which includes a donor compound, a donor chamber, a membrane, sampling port, receptor chamber, stir bar, and a heater/circulator. 6. Approximately 0.5 mL of donor solution is applied or 8 mm circular film and wetted with 500 μL PBS buffer. 7. Samples are taken from the receiving chamber at given intervals and replaced with fresh media.

Data set [4] can be described thus: Hydrolysis testing after IV exposure, PK parameters. Format: in vivo. How it is done: Hydrolysis was analyzed after intravenous (IV) administrations. All Groups were tested at the following time intervals: 0 (predose), 2, 5, 10, 12, 15, 17, 20, 25, 30, 40, 60, 90 and 120 minutes and 3 hr, 4 hr, 6 hr and 8 hr post dose.
A short description of data set [5]: Effect of sodium fluoride on drug absorption. To be noted: relative to compositions that did not include NaF. An excerpt:
Referring to FIG. 17, the graph indicates the effect of sodium fluoride on drug absorption.

“Also recorded” adds a separate entry of the source.

Take `CNCC(OC(=O)C(C)(C)C)c1ccc(OC(=O)C(C)(C)C)c(OC(=O)C(C)(C)C)c1` (centres unmarked) [AQEP-01]: the “Cmax and AUC compared among prodrugs” value in data set [1] is recorded as “AQEP-04>AQEP-02>AQEP-03>AQEP-01”.
Turning to `CCC(C)(C)C(=O)Oc1ccc(C(O)CNC)cc1OC(=O)C(C)(C)CC` (centres unmarked) [AQEP-02], the “Cmax and AUC compared among prodrugs” value in data set [1] is given as “AQEP-04>AQEP-02>AQEP-03>AQEP-01”.
On to `CNCC(O)c1ccc(OC(=O)N(C)C)c(OC(=O)N(C)C)c1` (centres unmarked) [AQEP-03], for which the “Cmax and AUC compared among prodrugs” value in data set [1] is “AQEP-04>AQEP-02>AQEP-03>AQEP-01”. In data set [2], the “hydrolysis in human whole blood compared to L-Dipivefrin” value (from here on “hydrolysis … compared to L-Dipivefrin”) is listed as “minimal hydrolysis; also recorded: did not show faster hydrolysis”.
Take `CNCC(O)c1ccc(OC(=O)c2ccccc2)c(OC(=O)c2ccccc2)c1` (centres unmarked) [AQEP-04]: in data set [3], the permeation result is “did not permeate as well; also recorded: did not permeate higher than L-Dipivefrin”. Besides, in data set [1], the “Cmax and AUC compared among prodrugs” value is “higher Cmax and AUC compared to Prodrugs 01, 02 and 03”; the “Cmax and AUC compared to L-Dipivefrin” value was “less”. Also, in data set [2] (1 μM in human whole blood in vitro), the “plasma levels of epinephrine converted from prodrug, compared to L-Dipivefrin” value was “Rapid conversion and higher levels of epinephrine”. In addition, in data set [2], the “hydrolysis … compared to L-Dipivefrin” value was “faster hydrolysis”.
In the case of `CCCC(=O)Oc1ccc(C(O)CNC)cc1OC(=O)CCC` (centres unmarked) [AQEP-05], the permeation entry in data set [3] is “effective permeation”. Besides, the “conversion to epinephrine after IV administration compared to L-Dipivefrin” value in data set [4] was “Rapid conversion”.
Regarding `CC(C)OC(=O)N(C)CC(O)c1ccc(O)c(O)c1` (centres unmarked) [AQEP-06], the “hydrolysis … compared to L-Dipivefrin” value in data set [2] was “did not show any hydrolysis; also recorded: did not show faster hydrolysis”.
For the molecule `CN(CC(O)c1ccc(O)c(O)c1)C(=O)OC(C)(C)C` (centres unmarked) [AQEP-07], in data set [2], the “hydrolysis … compared to L-Dipivefrin” value is listed as “did not show any hydrolysis; also recorded: did not show faster hydrolysis”.
On to `CCCCC(=O)Oc1ccc(C(O)CNC)cc1OC(=O)CCCC` (centres unmarked) [AQEP-08], for which the permeation result in data set [3] is recorded as “effective permeation”. Also, the “hydrolysis … compared to L-Dipivefrin” value in data set [2] was “faster hydrolysis”.
`CNCC(O)c1ccc(OC(=O)C(C)C)c(OC(=O)C(C)C)c1` (centres unmarked) [AQEP-09]: in data set [3], the permeation result was “effective permeation”. Also, the “ex vivo permeation of film formulations with varying polysaccharide content” value in data set [3] (formulations containing pullulan, compared to L-dipivefrin) is given as “Higher permeation”. In data set [5], the “absorption with addition of NaF to the formulation” value is “increased the absorption”. Moreover, the “hydrolysis … compared to L-Dipivefrin” value in data set [2] was “faster hydrolysis”.
Regarding `CCC(=O)Oc1ccc(C(O)CNC)cc1OC(=O)CC` (centres unmarked) [AQEP-10], the permeation entry in data set [3] is on record as “effective permeation”.
For `CCCCCC(=O)Oc1ccc(C(O)CNC)cc1OC(=O)CCCCC` (centres unmarked) [AQEP-11], the “permeation (flux vs. carbon chain length)” value in data set [3] (5 carbon straight chain) was “permeation dropped”. Further, the “hydrolysis … compared to L-Dipivefrin” value in data set [2] is given as “faster hydrolysis”.
In the case of `CCOC(=O)Oc1ccc(C(O)CNC)cc1OC(=O)OCC` (centres unmarked) [AQEP-12], the “hydrolysis … compared to L-Dipivefrin” value in data set [2] is listed as “faster hydrolysis”.
